# From patent US7842294B2, “Proteins belonging to the Bcl-2 family and fragments thereof, and their use in cancer patients” (Survac APS, priority 2003, dated 2010)
# Where “and” joins values, the source holds several entries; their conditions need not be identical. Equal values may be shown once. Read-outs that look alike come from different tables or passages of the source. Ends that are not written are not given here.
# Assays:
# [1] = test system: peptide epitope-specific interferon-γ releasing effector cells in PBL; test: IFN-γ ELISPOT on PBL stimulated once in vitro with peptide; type: cell-based, human; conditions: for patients with spontaneous CTL response / patients with spontaneous CTL response (%): PBL from 15 HLA-A2 positive breast cancer patients; for healthy individuals with CTL response: 12 healthy HLA-A2 positive individuals; for CLL patients with Bcl-2 response: ten HLA-A2 positive CLL patients; for CLL patients with Bcl-2 response / AML patients with Bcl-2 response: reactivity against bcl208 and bcl214, not broken down by peptide; for AML patients with Bcl-2 response: three AML patients; for pancreatic cancer patients with CTL response: two HLA-A2 positive pancreatic cancer patients
# Protocol: To extend the sensitivity of the ELISPOT assay, PBL were stimulated once in vitro prior to analysis. At day 0, PBL or crushed lymph nodes were thawed and plated in 2 ml/well at a concentration of 2×10^6 cells in 24-well plates (Nunc, Denmark) in X-vivo medium (Bio Whittaker, Walkersville, Md.), 5% heat-inactivated human serum, and 2 mM of L-glutamine in the presence of 10 μM of peptide. Two days later 20 IU/ml recombinant interleukin-2 (IL-2) (Chiron, Ratingen, Germany) was added to the cultures. The cultured cells were tested for reactivity in the ELISPOT on day 12.
# The ELISPOT assay was used to quantify peptide epitope-specific interferon-γ releasing effector cells as described previously (4). Briefly, nitrocellulose bottomed 96-well plates (MultiScreen MAIP N45, Millipore, Hedehusene, Denmark) were coated with anti-IFN-γ antibody (1-D1K, Mabtech, Nacka, Sweden). The wells were washed, blocked by X-vivo medium, and cells added in duplicates at different cell concentrations. Peptides were then added to each well and the plates were incubated overnight. The following day, media was discarded and the wells were washed prior to addition of biotinylated secondary antibody (7-B6-1-Biotin, Mabtech). The plates were incubated for 2 hours, washed and Avidin-enzyme conjugate (AP-Avidin, Calbiochem, Life Technologies) was added to each well. Plates were incubated at RT for 1 hour and the enzyme substrate NBT/BCIP (Gibco, Life Technologies) was added to each well and incubated at RT for 5-10 min. The reaction was terminated by washing with tap-water upon the emergency of dark purple spots. The spots were counted using the ImmunoSpot® Series 2.0 Analyzer (CTL Analyzers, LLC, Cleveland, US) and the peptide specific CTL frequency could be calculated from the numbers of spot-forming cells. All assays were performed in triplicates for each peptide antigen.
# [2] = target: T1, HLA-A2 (Homo sapiens, UniProt P04439, D140Y/D185E/D98H/E176V/E277Q/G131W/G231S/I119V/I121R/I166T/I218V/L300P/L318F/N151K/N90K/P208A/P217A/Q86G/Q94H/R138H/R169H/T345S); test: Assembly assay for peptide binding to MHC class I molecules (stabilisation of HLA from TAP-deficient T2 cells); conditions: recovery of HLA-A2 measured at 50, 5, 0.5, 0.05 μM peptide
# T1 construct: empty HLA molecules released upon cell lysis, from the TAP-deficient cell line T2; endogenous in cells; host or cells: T2 (TAP-deficient cell line), metabolically labelled with [35S]-methionine and lysed
# Protocol: This assembly assay is carried out as described previously (2), and it is based on stabilisation of the HLA molecule after loading of peptide to the peptide transporter deficient cell line T2. Subsequently, correctly folded stable HLA heavy chains are immunoprecipitated using conformation dependent antibodies and the peptide binding is quantitated.
# The binding affinity of the synthetic peptides (Invitrogen, Carlsbad, Calif., USA) to HLA-A2 molecules, metabolically labelled with [^35S]-methionine, was measured in the assembly assay, as described previously. The assay is based on peptide-mediated stabilisation of empty HLA molecules released upon cell lysis, from the TAP-deficient cell line T2. Stably folded HLA-molecules were immune-precipitated using the HLA class I-specific, conformation-dependent mAb W6/32, and separated by isoelectric focusing (IEF) gel electrophoresis. MHC heavy chain bands were quantified using the ImageGauge Phosphorimager program (FUJI photo film Co., Carrollton, Tex., USA). The intensity of the band is directly related to the amount of peptide-bound class I MHC complex recovered during the assay. Subsequently, the extent of stabilisation of HLA-A2 is directly related to the binding affinity of the added peptide. The recovery of HLA-A2 was measured in the presence of 50, 5, 0.5, 0.05 μM of the relevant peptide. The C50 value was calculated for each peptide as the peptide concentration sufficient for half maximal stabilisation.
# The amino acid sequence of the Bcl-2 protein was screened for the most probable HLA-A2 nona- and decamer peptide epitopes, using the main HLA-A2 specific anchor residues (2). […] The assembly assay is based on stabilisation of the class I molecule after loading of different concentrations of peptide to the TAP-deficient cell line T2. Subsequently correctly folded stable MHC heavy chains are immunoprecipitated using conformation-dependent antibodies.
# [3] = test system: antigen-specific CTL in PBL; test: Granzyme B (GrB) ELISPOT; type: cell-based, human; conditions: for GrB release in controls: breast cancer patient no. 16 and healthy control h1
# Protocol: The Granzyme B (GrB) ELISPOT assay was used for measuring antigen-specific CTL cytotoxicity as described. Briefly, nitrocellulose bottomed 96-well plates (MultiScreen MAIP N45, Millipore) were coated with GrB Capture Antibody (BD Biosciences, Brondby, Denmark). The wells were washed and blocked by X-vivo medium with 5% human serum. The cells were added at different cell concentrations. T2 cells and peptides were then added to each well and the plates were incubated 4 hours, medium was discarded and the wells were washed prior to addition of GrB Detection Antibody (BD Biosciences). The plates were incubated for 2 hours, washed and Avidin horseradish peroxidase (BD Biosciences) was added to each well. Plates were incubated at RT for 1 hour AEC Substrate Reagent (BD Biosciences) was added to each well and incubated at RT for 5-10 min. The reaction was terminated by washing with tap-water upon the emergency of red spots. The spots were counted and the peptide specific CTL frequency was calculated like for the INF-γ ELISPOT. All assays were performed in duplicate or triplicates for each peptide antigen.
# [4] = test system: HLA-A2 negative breast cancer cell line ZR75-1
# [5] = test system: HLA-A2 positive breast cancer cell line MDA-MB-231; test: 51Cr-release cytotoxicity assay with bcl208-isolated T cells; type: cell-based, human; conditions: enriched bcl208 reactive T cells, Bcl-2 expressing
# [6] = test system: T2 cells; test: as above; type: cell-based, human; conditions: bcl208 reactive T cells enriched from a breast cancer patient, day 5
# [7] = test system: CD8+ T cells from PBL; test: FACS analysis with Pro5 MHC pentamer staining; type: cell-based, human; conditions: breast cancer patient no. 36, PBL stimulated once in vitro, HLA-A2/Bcl-XL173-182 pentamer
# [8] = read-out: C50 (concentration of the peptide required for half maximal binding to HLA-A2)
# [9] = C50 (concentration of the peptide required for half maximal binding to HLA-A2)
sequence,measurement,setting,value
YLNRHLHTWI [bcl180],patients with spontaneous CTL response,[1],four
same,patients with spontaneous CTL response (%),[1],≈ 25%
same,EC50,[2]; [8],20000 nM and 15000 nM
PLFDFSWLSL [bcl208],healthy individuals with CTL response,[1],one
same,patients with spontaneous CTL response,[1],twelve
same,patients with spontaneous CTL response (%),[1],≈ 80%
same,CLL patients with Bcl-2 response,[1],five
same,AML patients with Bcl-2 response,[1],two
same,pancreatic cancer patients with CTL response,[1],both
same,GrB release in controls,[3],no GrB release was detected
same,recognition of peptide-pulsed T2 cells by CTL clones (GrB ELISPOT),"[3]; clones from HLA-A2/bcl208 bead-isolated cells, data not shown",Several of these clones showed specific recognition
same,cytotoxicity against ZR75-1 cells,[4],no cytotoxicity was observed
same,EC50,[2]; [8],7000 nM
same,lysis of MDA-MB-231 cells,[5],efficiently lysed
same,killing of T2 cells loaded with peptide versus unloaded,[6],only T2 cells pulsed with bcl208 were killed
"SLKTLLSLAL [bcl216, SLKTLLSLAL]",C50 (concentration of the peptide required for half maximal binding to HLA-A2),[2],did not bind
ALSPVPPVV [Bcl85],EC50,[2]; [8],1000 nM
LLSLALVGA [bcl220],EC50,[2]; [8],1000 nM
WLSLKTLLSL [bcl214],patients with spontaneous CTL response,[1],eleven
same,patients with spontaneous CTL response (%),[1],≈ 75%
same,CLL patients with Bcl-2 response,[1],five
same,AML patients with Bcl-2 response,[1],two
same,pancreatic cancer patients with CTL response,[1],both
same,GrB release in controls,[3],no GrB release was detected
same,EC50,[2]; [8],3000 nM
FTARGRFATV [bcl124],EC50,[2]; [8],1000 nM
KTLLSLALV [bcl218],EC50,[2]; [9],2000 nM
YLNDHLEPWI (Peptide derived from Bcl-XL) [Bcl-XL173-182],healthy individuals with CTL response,[1],no responses were detected
same,CTL response in cancer patients of different origin (in words),[1]; PBL from HLA-matched cancer patients,strong and frequent CTL responses
same,breast cancer patients hosting an immune response,"[1]; eighteen HLA-A2+ breast cancer patients, responder >25 spots per 10^5 cells",nine out of eighteen
same,"peptide specific, IFNγ secreting CD8+ T cells",[1]; same CD8+ culture of breast cancer patient no. 36,around 1.4%
same,melanoma patients hosting an immune response,"[1]; six HLA-A2+ melanoma patients, responder >25 spots per 10^5 cells",two out of six
same,frequency of peptide specific CTL (GrB ELISPOT),[3]; Bcl-XL reactive breast cancer patients no. 35 and 36,50-100 peptide specific CTL per 3×10^5 cells
same,GrB release in control patient,[3]; breast cancer patient no. 17,no GrB release was detected
same,pentamer positive T cells among CD8+ T cells,[7],0.24%
ELYGPSMRPL [bcl200],C50 (concentration of the peptide required for half maximal binding to HLA-A2),[2],did not bind
NIALWMTEYL [bcl172],patients with spontaneous CTL response,[1],eight
same,patients with spontaneous CTL response (%),[1],50%
same,EC50,[2]; [8],2000 nM
SLALVGACI [bcl222],EC50,[2]; [8],1000 nM
ALVGACITL [Bcl224],EC50,[2]; [8],700 nM
AAAGPALSPV [bcl80],EC50,[2]; [9],36000 nM
